The text below walks through data of US6884813B2, “Antimicrobial dihydrothiazine and dihydrothiopyran oxazolidinones” (Pharmacia & Upjohn Company, priority 2002, dated 2005).

Converted amounts (≈) assume the structure as drawn.

For one data set, the system named is SPNE 9912. As to the kind of experiment: Minimum inhibitory concentration (MIC) by agar dilution. It is filed as cell-based. The settings on record: Streptococcus pneumoniae, lowest concentration of drug that inhibits visible growth of the organism, strain SPNE 9912, read-out: Antibacterial Activity, Minimum Inhibitory Concentration (MIC μg/mL) SPNE 9912. From the text:
Compounds of this invention have useful activity against a variety of organisms. The in vitro activity of compounds of this invention can be assessed by standard testing procedures such as the determination of minimum inhibitory concentration (MIC) by agar dilution as described in “Approved Standard. Methods for Dilution Antimicrobial Susceptibility Tests for Bacteria That Grow Aerobically”, 3rd. ed., published 1993 by the National Committee for Clinical Laboratory Standards, Villanova, Pa., USA. Minimum inhibitory concentration (MIC) refers to lowest concentration of drug (μg/mL) that inhibits visible growth of the organism. “- -” refers to the activity data is not available.

With `O=C(NC[C@H]1CN(c2cc(F)c(C3C=CS(=O)(=O)CC3)c(F)c2)C(=O)O1)C(Cl)Cl` (stereo partly drawn) [Example 31, 2,2-dichloro-N-({(5S)-3-[4-(1,1-dioxido-3,4-dihydro-2H-thiopyran-4-yl)-3,5-difluorophenyl]-2-oxo-1,3-oxazolidin-5-yl}methyl)acetamide], the MIC with SPNE 9912 is 0.5 µg/mL (≈ 1.07 µM).
For `O=C1O[C@@H](CNC(=S)C(F)F)CN1c1ccc(C2C=CS(=O)(=O)CC2)cc1` (stereo partly drawn) [Example 17, [[(5S)-3-[4-(3,4-dihydro-1,1-dioxido-2H-thiopyran-4-yl)phenyl]-2-oxo-5-oxazolidinyl]methyl]-2,2-difluoroethanethioamide], the melting point is 139 to 140 °C. For the same compound, the MIC in the data set on SPNE 9912 came out at 0.25 µg/mL (≈ 0.6 µM).
Take `O=C(NC[C@H]1CN(c2cc(F)c(N3C=CS(=O)(=O)CC3)c(F)c2)C(=O)O1)C(F)F` [Example 29, N-[[(5S)-3-[4-(2,3-dihydro-1,1-dioxido-4H-1,4-thiazin-4-yl)-3,5-difluorophenyl]-2-oxo-5-oxazolidinyl]methyl]-2,2-difluoroacetamide]: in the data set with SPNE 9912, the MIC is 0.5 µg/mL (≈ 1.14 µM).
In the case of `CC(=O)NC[C@H]1CN(c2ccc(C3C=C[S+]([O-])CC3)c(F)c2)C(=O)O1` (stereo partly drawn) [Example 4, N-[[(5S)-3-[4-(3,4-dihydro-1-oxido-2H-thiopyran-4-yl)-3-fluorophenyl]-2-oxo-5-oxazolidinyl]methyl]acetamide], the MIC in the data set with SPNE 9912 came to 1 µg/mL (≈ 2.73 µM).
Consider `O=C(NC[C@H]1CN(c2ccc(C3C=CS(=O)(=O)CC3)c(F)c2)C(=O)O1)C(Cl)Cl` (stereo partly drawn) [Example 11, 2,2-dichloro-N-[[(5S)-3-[4-(3,4-dihydro-1,1-dioxido-2H-thiopyran-4-yl)-3-fluorophenyl]-2-oxo-5-oxazolidinyl]methyl]acetamide], for which the melting point lay in the range of 148 to 150 °C. The MIC in the data set with SPNE 9912 was 0.5 µg/mL (≈ 1.11 µM).
Take `O=C1O[C@@H](CNC(=O)C(F)(F)F)CN1c1ccc(C2C=CSCC2)c(F)c1` (stereo partly drawn) [Example 1, N-[[(5S)-3-[4-(3,4-dihydro-2H-thiopyran-4-yl)-3-fluorophenyl]-2-oxo-5-oxazolidinyl]methyl]-2,2,2-trifluoroacetamide]: the MIC in the data set with SPNE 9912 turned out to be 2 µg/mL (≈ 4.95 µM).
Same read-out and setting: the figure for `O=C(NC[C@H]1CN(c2ccc(N3C=CS(=O)(=O)CC3)c(F)c2)C(=O)O1)C(F)F` [Example 23, N-[[(5S)-3-[4-(2,3-dihydro-1,1-dioxido-4H-1,4-thiazin-4-yl)-3-fluorophenyl]-2-oxo-5-oxazolidinyl]methyl]-2,2-difluoroacetamide] is 0.5 µg/mL (≈ 1.19 µM); for `O=C1O[C@@H](CNC(=S)C(F)F)CN1c1cc(F)c(C2C=CS(=O)(=O)CC2)c(F)c1` (stereo partly drawn) [Example 32, N-({(5S)-3-[4-(1,1-dioxido-3,4-dihydro-2H-thiopyran-4-yl)-3,5-difluorophenyl]-2-oxo-1,3-oxazolidin-5-yl}methyl)-2,2-difluoroethanethioamide] it is 0.5 µg/mL (≈ 1.11 µM).
For `CC(=O)NC[C@H]1CN(c2ccc(C3C=CSCC3)c(F)c2)C(=O)O1` (stereo partly drawn) [Example 2, N-[[(5S)-3-[4-(3,4-dihydro-2H-thiopyran-4-yl)-3-fluorophenyl]-2-oxo-5-oxazolidinyl]methyl]acetamide], the MIC in the data set on SPNE 9912 amounted to 1 µg/mL (≈ 2.85 µM).
Still for that read-out and setting: the figure for `O=C(NC[C@H]1CN(c2cc(F)c(N3C=CS(=O)(=O)CC3)c(F)c2)C(=O)O1)C(Cl)Cl` [Example 28, 2,2-dichloro-N-[[(5S)-3-[4-(2,3-dihydro-1,1-dioxido-4H-1,4-thiazin-4-yl)-3,5-difluorophenyl]-2-oxo-5-oxazolidinyl]methyl]acetamide] is 0.5 µg/mL (≈ 1.06 µM).
`CC(=O)NC[C@H]1CN(c2ccc(N3C=CS(=O)(=O)CC3)c(F)c2)C(=O)O1` [Example 7, N-[[(5S)-3-[4-(2,3-dihydro-1,1-dioxido-4H-1,4-thiazin-4-yl)-3-fluorophenyl]-2-oxo-5-oxazolidinyl]methyl]acetamide] showed a melting point of 193 to 194 °C. The MIC with SPNE 9912 worked out at 0.5 µg/mL (≈ 1.3 µM).
For `O=C(NC[C@H]1CN(c2ccc(C3C=CS(=O)(=O)CC3)c(F)c2)C(=O)O1)C(F)F` (stereo partly drawn) [Example 9, N-[[(5S)-3-[4-(3,4-dihydro-1,1-dioxido-2H-thiopyran-4-yl)-3-fluorophenyl]-2-oxo-5-oxazolidinyl]methyl]-2,2-difluoroacetamide], the MIC in the data set with SPNE 9912 is 0.5 µg/mL (≈ 1.2 µM).
In the case of `O=C(NC[C@H]1CN(c2cc(F)c(C3C=CS(=O)(=O)CC3)c(F)c2)C(=O)O1)C(F)F` (stereo partly drawn) [Example 30, N-({(5S)-3-[4-(1,1-dioxido-3,4-dihydro-2H-thiopyran-4-yl)-3,5-difluorophenyl]-2-oxo-1,3-oxazolidin-5-yl}methyl)-2,2-difluoroacetamide], the MIC with SPNE 9912 was 1 µg/mL (≈ 2.29 µM).
On the same count and under the same terms, the figure for `CC(=O)NC[C@H]1CN(c2ccc(C3C=CS(=O)(=O)CC3)c(F)c2)C(=O)O1` (stereo partly drawn) [Example 5, N-[[(5S)-3-[4-(3,4-Dihydro-1,1-dioxido-2H-thiopyran-4-yl)-3-fluorophenyl]-2-oxo-5-oxazolidinyl]methyl]acetamide] is 0.25 µg/mL (≈ 0.654 µM); for `CC(=S)NC[C@H]1CN(c2ccc(C3C=C[S+]([O-])CC3)c(F)c2)C(=O)O1` (stereo partly drawn) [Example 6, N-[[(5S)-3-[4-(3,4-dihydro-1-oxido-2H-thiopyran-4-yl)-3-fluorophenyl]-2-oxo-5-oxazolidinyl]methyl]ethanethioamide] it is 0.25 µg/mL (≈ 0.654 µM); for `O=C1O[C@@H](CNC(=S)C(F)F)CN1c1ccc(C2C=CS(=O)(=O)CC2)c(F)c1` (stereo partly drawn) [Example 10, N-[[(5S)-3-[4-(3,4-dihydro-1,1-dioxido-2H-thiopyran-4-yl)-3-fluorophenyl]-2-oxo-5-oxazolidinyl]methyl]-2,2-difluoroethanethioamide] it is 0.25 µg/mL (≈ 0.575 µM).
`O=C(NC[C@H]1CN(c2ccc(C3C=CS(=O)(=O)CC3)cc2)C(=O)O1)C(Cl)Cl` (stereo partly drawn) [Example 16, 2,2-dichloro-N-[[(5S)-3-[4-(3,4-dihydro-1,1-dioxido-2H-thiopyran-4-yl)phenyl]-2-oxo-5-oxazolidinyl]methyl]acetamide] registered a melting point of 159 to 161 °C. Moreover, in the data set on SPNE 9912, the MIC is 0.25 µg/mL (≈ 0.577 µM).
Consider `O=C(NC[C@H]1CN(c2ccc(N3C=CS(=O)(=O)CC3)cc2)C(=O)O1)C(Cl)Cl` [Example 25, 2,2-dichloro-N-[[(5S)-3-[4-(2,3-dihydro-1,1-dioxido-4H-1,4-thiazin-4-yl)phenyl]-2-oxo-5-oxazolidinyl]methyl]acetamide], for which the MIC in the data set with SPNE 9912 turned out to be 1 µg/mL (≈ 2.3 µM).
`O=C(NC[C@H]1CN(c2ccc(N3C=CS(=O)(=O)CC3)c(F)c2)C(=O)O1)C(Cl)Cl` [Example 22, 2,2-dichloro-N-[[(5S)-3-[4-(2,3-dihydro-1,1-dioxido-4H-1,4-thiazin-4-yl)-3-fluorophenyl]-2-oxo-5-oxazolidinyl]methyl]acetamide]: the MIC in the data set on SPNE 9912 was 0.25 µg/mL (≈ 0.553 µM).
Regarding `COC(=O)NC[C@H]1CN(c2ccc(C3C=CS(=O)(=O)CC3)cc2)C(=O)O1` (stereo partly drawn) [Example 19, (S)-[[3-[4-(3,4-dihydro-1,1-dioxido-2H-thiopyran-4-yl)phenyl]-2-oxo-5-oxazolidinyl]methyl]carbamic acid, methyl ester], the melting point is 196 to 197 °C. Moreover, the MIC in the data set with SPNE 9912 turned out to be 2 µg/mL (≈ 5.26 µM).
For `CC(=O)NC[C@H]1CN(c2cc(F)c(N3C=CS(=O)(=O)CC3)c(F)c2)C(=O)O1` [Example 8, N-[[(5S)-3-[4-(2,3-dihydro-1,1-dioxido-4H-1,4-thiazin-4-yl)-3,5-difluorophenyl]-2-oxo-5-oxazolidinyl]methyl]acetamide], the MIC in the data set on SPNE 9912 was determined as 0.5 µg/mL (≈ 1.25 µM).
For `CCC(=O)NC[C@H]1CN(c2ccc(C3C=CS(=O)(=O)CC3)cc2)C(=O)O1` (stereo partly drawn) [Example 18, N-[[(5S)-3-[4-(3,4-dihydro-1,1-dioxido-2H-thiopyran-4-yl)phenyl]-2-oxo-5-oxazolidinyl]methyl]propionamide], the melting point lay within 144 to 147 °C. Also, in the data set on SPNE 9912, the MIC was determined as 1 µg/mL (≈ 2.64 µM).
Turning to `O=C1O[C@@H](CNC(=S)C(F)F)CN1c1ccc(N2C=CS(=O)(=O)CC2)cc1` [Example 24, N-[[(5S)-3-[4-(2,3-dihydro-1,1-dioxido-4H-1,4-thiazin-4-yl)phenyl]-2-oxo-5-oxazolidinyl]methyl]-2,2-difluoroethanethioamide], the MIC with SPNE 9912 came to 0.5 µg/mL (≈ 1.2 µM).
On the same count and under the same terms, as for `O=C(NC[C@H]1CN(c2ccc(N3C=CS(=O)(=O)CC3)cc2)C(=O)O1)C(F)F` [Example 26, N-[[(5S)-3-[4-(2,3-dihydro-1,1-dioxido-4H-1,4-thiazin-4-yl)phenyl]-2-oxo-5-oxazolidinyl]methyl]-2,2-difluoroacetamide], the figure is 1 µg/mL (≈ 2.49 µM); as for `O=C1O[C@@H](CNC(=S)C(F)F)CN1c1cc(F)c(N2C=CS(=O)(=O)CC2)c(F)c1` [Example 27, N-[[(5S)-3-[4-(2,3-dihydro-1,1-dioxido-4H-1,4-thiazin-4-yl)-3,5-difluorophenyl]-2-oxo-5-oxazolidinyl]methyl]-2,2-difluoroethanethioamide], 0.25 µg/mL (≈ 0.551 µM).
On the same count and under the same terms, the figure for `CC(=S)NC[C@H]1CN(c2ccc(C3C=CSCC3)c(F)c2)C(=O)O1` (stereo partly drawn) [Example 3, N-[[(5S)-3-[4-(3,4-dihydro-2H-thiopyran-4-yl)-3-fluorophenyl]-2-oxo-5-oxazolidinyl]methyl]ethanethioamide] is 0.5 µg/mL (≈ 1.36 µM).
Still for that read-out and setting: the figure for `CC(=O)NC[C@H]1CN(c2cc(F)c(C3C=CS(=O)(=O)CC3)c(F)c2)C(=O)O1` (stereo partly drawn) [Example 20, N-[[(5S)-3-[4-(3,4-dihydro-1,1-dioxido-2H-thiopyran-4-yl)-3,5-difluorophenyl]-2-oxo-5-oxazolidinyl]methyl]acetamide] is 1 µg/mL (≈ 2.5 µM); for `O=C1O[C@@H](CNC(=S)C(F)F)CN1c1ccc(N2C=CS(=O)(=O)CC2)c(F)c1` [Example 21, N-[[(5S)-3-[4-(2,3-dihydro-1,1-dioxido-4H-1,4-thiazin-4-yl)-3-fluorophenyl]-2-oxo-5-oxazolidinyl]methyl]-2,2-difluoroethanethioamide] it is 0.25 µg/mL (≈ 0.574 µM).
